According to patent US5574015A, “Isosteric antiherpes peptide derivatives” (priority 1994, dated 1996):

System: HSV-2
Test: Inhibition of Herpes Simplex Virus (HSV-2) replication in cell culture
Type: cell-based, HSV-2 strain HG-52
Method: Inhibition of Herpes Simplex Virus (HSV-2). Replication in Cell Culture
BHK-21/C13 cells (ATCC CCL 10) are incubated for two days in 150 cm^2 T-flasks (1.5×10^6 cells/flask) with alpha-MEM medium (Gibco Canada Inc., Burlington, Ontario, Canada) supplemented with 8% (v/v) fetal bovine serum (FBS, Gibco Canada Inc.). The cells are trypsinized and then transferred to fresh media in a 24 well plate to give 2.5×10^5 cells in 750 μL of media per well. The cells are incubated at 37° for a period of 6 h to allow them to adhere to the plate. Thereafter, the cells are washed once with 500 μL of alpha-MEM supplemented with 0.5% (v/v) FBS and then incubated with 750 μL of the see media (low serum) for 3 days. After this period of serum starvation, the low serum medium is removed and the cells are incubated in 500 μL of BBMT for 2 to 3 hours. {BBMT medium is described by P. Brazeau et al., Proc. Natl. Acad. Sci. USA, 79, 7909 (1982).} Thereafter, the cells are infected with HSV-2 (multiplicity of infection=0.02 PFU/cell) in 100 μL of BBMT medium. (Note: The HSV-2 used was strain HG-52, see Y. Langelier and G. Buttin, J. Gen. Virol., 57, 21 (1981); the virus was stored at -80°) Following 1 h of virus adsorption at 37°, the media is removed and the cells are washed with BBMT (3×250 μL). The cells in each well are incubated with or without (control) appropriate concentrations of the test agent dissolved in 200 μL of BBMT medium. After 29 h of incubation at 37°, the infected cells are harvested by first freezing the plate at -80°, followed by thawing. The cells in each well are scraped off the surface of the well with the help of the melting ice fragments. After complete thawing, the cell suspensions are collected and each well is rinsed with 150 μL of BBMT medium. The viral sample (suspension plus washing) is sonicated gently for 4 min at 4°. Cell debris are removed by centrifugation (1000 times gravity for 10 minutes at 4°). The supernatant is collected and stored at -80° until determination of viral titer.
Viral titration was performed by a modification of the colorimetric assay method of M. Langlois et al., Journal of Biological Standardization, 14, 201 (1986).
More specifically, in a similar manner as described above, BHK-21/C13 cells are trypsinized and transferred to fresh media in a 96 well microtiter plate to give 20,000 cells in 100 μL of media per well. The cells in the prepared plate are incubated at 37° for 2 h. During that time, the viral sample is thawed and sonicated gently for 15 seconds, and log dilutions of the sample are prepared (1/5 sequential: 50 μL of the sample plus 200 μL of BBMT medium, sequential dilutions being done with a multichannel pipette.
On completion of the above 2 hour incubation of the BHK-21/C13 cells, the media is replaced with alpha-MEM medium supplemented with 3% (v/v) FBS. The cells are now ready to be infected with the various sample dilutions of virus. Aliquots (50 μL) of the various dilutions are transferred into the appropriate wells of the plate. The resulting infected cells are incubated for 2 days at 37°. Then 50 μL of a 0.15% (v/v) solution of neutral red dye in Hank's Balanced Salt Solution (pH 7.3, Gibco Canada Inc.) is added to each well. The prepared plate is incubated for 45 min at 37°. Medium from each well is then aspirated and the cells are washed once with 200 μL of Hank's Balanced Salt Solution. […]

[1] = Table V, cell culture assay of example 11
[2] = Table II, BHK-21/C13 cells, 29 h incubation, 50% inhibition of virus replication

Row | Compound | EC50 [1] | EC50 [2] | further results
1 | Pr2 CHNHC(O)--Tbg--CH2 --(R)-CH{CH2 --C(O)--(1-methylcyclopentyl)}C(O)--Asp(cyPn)--NHCH2 CMe3 | 35 µM |  | 
2 | Et2 CHNHC(O)--Tbg--CH2 --(S)-CH{CH2 C(O)--(pyrrolidino)}C(O)--Asp(cyPn)--γMeLeucinol |  | 200 µM | 
3 | Pr2 CHNHC(O)--Val--CH2 --(R)-CH(CH2 --C(O)CMe3)C(O)--Asp(cyPn)--NH--(R)-CH(Me)CMe3 | 37 µM |  | 
4 | Pr2 CHNHC(O)--Tbg--CH2 --(R)-CH{CH2 --C(O)--(cyclohexyl)}C(O)--Asp(cyPn)--NHCH2 CMe3 | 61 µM |  | 
5 | Pr2 CHNHC(O)--NH--(S)-CH(CMe2 Et)--C(O)--CH2 --(R)-CH(CH2 C(O)CMe3)C(O)--Asp--(cyPn)--NH--(R)-CH(Me)CMe3 | 13 µM |  | 
6 | Pr2 CHNHC(O)--Tbg--CH2 --(R)-CH{CH2 --C(O)--(cyclobutyl)}C(O)--Asp(cyPn)--NHCH2 CMe3 | 46 µM |  | 
7 | PhCH2 CH2 C(O)--(N--Me)Val--Tbg--CH2 --(R)-CH(CH2 C(O)CMe3)C(O)--Asp(cyPn)--γMeLeu--NH2 |  | 60 µM | 
8 | Pr2 CHNHC(O)--Tbg--CH2 --(R)-CH--(CH2 C(O)CH2 CMe3)C(CF)--Asp(cyPn)--Leu--OH | 80 µM |  | 
9 | Et2 CHNHC(O)--Tbg--CH2 --(R)-CH(CH2 C(O)--CMe3)C(O)--Asp(cyPn)--NHCH2 CMe3 |  | 56 µM | 
10 | Pr2 CHNHC(O)--Tbg--CH2 --(R)-CH(CH2 --C(O)CMe2 Et)C(O)--Asb(cyPn)--NHCH2 --CMe3 | 33 µM |  | 
11 | Nc1nc2c(ncn2COCCO)c(=O)[nH]1 [acyclovir, reference compound] |  |  | EC50 (Human alphaherpesvirus 2, Table III, acyclovir + 2 μM of peptide (title peptide of example 6)): 1.4 µM; EC50 (Human alphaherpesvirus 2, Table III, acyclovir + 4 μM of peptide (title peptide of example 6)): 0.9 µM; EC50 (Human alphaherpesvirus 2, Table III, acyclovir + 6 μM of peptide (title peptide of example 6)): 0.9 µM; EC50 (Human alphaherpesvirus 2, Table III, acyclovir + 8 μM of peptide (title peptide of example 6)): 0.8 µM; EC50 (Human alphaherpesvirus 2, Table III, acyclovir + 10 μM of peptide (title peptide of example 6)): 0.42 µM; synergism by the isobole method (combination of acyclovir and title peptide of example 6, FIG. 1): positive result; action of the combination of acyclovir and the peptide versus acyclovir alone (combinations with title peptide of example 6, EC50's significantly lower than acyclovir alone): synergistic action
12 | PhCH2 CH2 C(O)--(N-Me)Val-Tbq-CH2 --(R)--CH(CH2 C(O)CMe3)C(O)-Asp(cyPn)-γMeLeucinol [Title Compound of Example 6] |  | 15 µM | EC50 (Table III, agent alone, BHK-21/C13 cells): 19 µM
13 | Pr2 CHNHC(O)--Tbg--CH2 --(R)-CH(CH2 --C(O)CMe3)C(O)--Asp{(R)-Pr}--NHCH2 CMe3 | 46 µM |  | 
14 | PhCH2 CH2 C(O)--(N--Me)Val--Tbg--CH2 --(R)-CH(CH2 C(O)CMe3)C(O)--Asp(cyPn)--γMeLeu--OH |  | 65 µM | 
15 | Pr2 CHNHC(O)--Tbg--CH2 --(R)-CH(CH2 --C(O)CMe3)C(O)--Asp{(R)-allyl}--NHCH2 CMe3 | 62 µM |  | 
16 | Pr2 CHNHC(O)--Tbg--CH2 --(R)-CH(CH2 C(O)--CMe3)C(O)--Asp(cyPn)--NHCH2 CMe3 |  | 24 µM | 
17 | Pr2 CHNHC(O)--Tbg--CH2 --(R)-CH(CH2 --C(O)CHMe2)C(O)--Asp(cyPn)--NHCH2 CMe3 | 39 µM |  | 
18 | Et2 CHNHC(O)--Tbg--CH2 --(R)-CH{CH2 C(O)--(cyclopentyl)}C(O)--Asp(cyPn)--NHCH2 CMe3 |  | 50 µM | 
19 | Me(CH2 =CH--CH2)2 CNHC(O)-Tbg-CH2 --(R)--CH(CH2 C(O)CMe3)C(O)-Asp(cyPn)-NHCH2 CMe3 [Me(CH2 =CHCH2)2 --CNHC(O), NHCH2 CMe3] |  |  | EC50 (Table IV, cell culture assay of example 11): 30 µM
20 | Pr2 CHNHC(O)--Tbg--CH2 --(R)-CH(CH2 C(O)--CMe3)C(O)--Asp(cyPn)--γMeLeucinol |  | 30 µM | 
